ChEMBL document CHEMBL2434882, “A novel [1,2,4] triazolo [1,5-a] pyrimidine-based phenyl-linked steroid dimer: synthesis and its cytotoxic activity” (Eur J Med Chem, 2013)
Active and inactive are the calls of the source. The calls are words filed in the database; no cut-off is given here.

Key:
[1] = system: ECa-109 cell line; assay: Induction of apoptosis in human EC109 cells assessed as live cells at 40 uM after 12 hrs by annexin V-FITC/propidium iodide staining-based flow cytometric analysis (reference value: 92.1%); format: functional
[2] = system: ECa-109 cell line; assay: Induction of apoptosis in human EC109 cells assessed as early apoptotic cells at 40 uM after 24 hrs by annexin V-FITC/propidium iodide staining-based flow cytometric analysis (reference value: 3.8%); format: functional
[3] = Cell cycle arrest in human EC109 cells assessed as accumulation at S phase at 2.5 uM after 24 hrs by propidium iodide staining-based flow cytometric analysis (reference value: 37.99%); format: functional; settings: ECa-109
[4] = system: ECa-109 cell line; assay: Induction of apoptosis in human EC109 cells assessed as damaged cells at 5 uM after 12 hrs by annexin V-FITC/propidium iodide staining-based flow cytometric analysis (reference value: 0.4%); format: functional
[5] = system: ECa-109 cell line; assay: Induction of apoptosis in human EC109 cells assessed as nuclear fragmentation at 1.25 to 20 uM after 24 hrs by Hoechst 33258 staining-based fluorescence microscopic analysis; format: functional, cell-based
[6] = system: ECa-109 cell line; assay: Induction of apoptosis in human EC109 cells assessed as damaged cells at 5 uM after 24 hrs by annexin V-FITC/propidium iodide staining-based flow cytometric analysis (reference value: 0.1%); format: functional
[7] = Cell cycle arrest in human EC109 cells assessed as accumulation at S phase at 5 uM after 12 hrs by propidium iodide staining-based flow cytometric analysis (reference value: 33.29%); format: functional; settings: ECa-109
[8] = system: ECa-109 cell line; assay: Induction of apoptosis in human EC109 cells assessed as early apoptotic cells at 40 uM after 12 hrs by annexin V-FITC/propidium iodide staining-based flow cytometric analysis (reference value: 6.1%); format: functional
[9] = system: ECa-109 cell line; assay: Induction of apoptosis in human EC109 cells assessed as live cells at 10 uM after 24 hrs by annexin V-FITC/propidium iodide staining-based flow cytometric analysis (reference value: 93.6%); format: functional
[10] = system: ECa-109 cell line; assay: Induction of apoptosis in human EC109 cells assessed as live cells at 5 uM after 24 hrs by annexin V-FITC/propidium iodide staining-based flow cytometric analysis (reference value: 93.6%); format: functional
[11] = Cell cycle arrest in human EC109 cells assessed as accumulation at G2/M phase at 2.5 uM after 24 hrs by propidium iodide staining-based flow cytometric analysis (reference value: 6.31%); format: functional; settings: ECa-109
[12] = system: ECa-109 cell line; assay: Induction of apoptosis in human EC109 cells assessed as live cells at 20 uM after 12 hrs by annexin V-FITC/propidium iodide staining-based flow cytometric analysis (reference value: 92.1%); format: functional
[13] = Disruption of mitochondrial membrane potential in human EC109 cells at 5 uM after 24 hrs by JC1 staining-based flow cytometric analysis (reference value: 8.1%); format: functional, ECa-109
[14] = system: MCF7; assay: Cytotoxicity against human MCF7 cells assessed as growth inhibition after 72 hrs by MTT assay; format: functional, cell-based; settings: MCF7, 72 h
[15] = Upregulation of p53 protein expression in human EC109 cells at 5 to 10 uM after 24 hrs by Western blot analysis; format: functional, cell-based; settings: ECa-109
[16] = Selectivity ratio of IC50 for human L02 cells to IC50 for human SMMC7721 cells; format: cell-based, SMMC-7721; settings: L02 cells versus SMMC7721 cells, read-out: Ratio IC50
[17] = Cell cycle arrest in human EC109 cells assessed as accumulation at G2/M phase at 2.5 to 10 uM by propidium iodide staining-based flow cytometric analysis; format: functional; settings: ECa-109, TDE = time-dependent effect
[18] = system: MGC-803; assay: Cytotoxicity against human MGC803 cells assessed as growth inhibition after 72 hrs by MTT assay; format: functional, cell-based; settings: MGC-803, 72 h
[19] = system: ECa-109 cell line; assay: Induction of apoptosis in human EC109 cells assessed as late apoptotic cells at 2.5 uM after 12 hrs by annexin V-FITC/propidium iodide staining-based flow cytometric analysis (reference value: 1.4%); format: functional
[20] = Cytotoxicity against human L02 cells assessed as growth inhibition after 72 hrs by MTT assay; format: cell-based; settings: L02, 72 h
[21] = Cell cycle arrest in human EC109 cells assessed as accumulation at G2/M phase at 5 uM after 12 hrs by propidium iodide staining-based flow cytometric analysis (reference value: 13.72%); format: functional; settings: ECa-109
[22] = system: ECa-109 cell line; assay: Induction of apoptosis in human EC109 cells assessed as damaged cells at 40 uM after 12 hrs by annexin V-FITC/propidium iodide staining-based flow cytometric analysis (reference value: 0.4%); format: functional
[23] = system: ECa-109 cell line; assay: Induction of apoptosis in human EC109 cells assessed as damaged cells at 10 uM after 24 hrs by annexin V-FITC/propidium iodide staining-based flow cytometric analysis (reference value: 0.1%); format: functional
[24] = Cytotoxicity against human L02 cells assessed as cell viability at 20 uM after 72 hrs by MTT assay relative to control; format: cell-based; settings: read-out: Activity
[25] = system: SMMC-7721; assay: Cytotoxicity against human SMMC7721 cells assessed as growth inhibition after 72 hrs by MTT assay; format: functional, cell-based; settings: SMMC-7721, 72 h
[26] = system: ECa-109 cell line; assay: Induction of apoptosis in human EC109 cells assessed as live cells at 5 uM after 12 hrs by annexin V-FITC/propidium iodide staining-based flow cytometric analysis (reference value: 92.1%); format: functional
[27] = system: ECa-109 cell line; assay: Induction of apoptosis in human EC109 cells assessed as damaged cells at 20 uM after 12 hrs by annexin V-FITC/propidium iodide staining-based flow cytometric analysis (reference value: 0.4%); format: functional
[28] = Cell cycle arrest in human EC109 cells assessed as accumulation at G0/G1 phase at 10 uM after 24 hrs by propidium iodide staining-based flow cytometric analysis (reference value: 51.57%); format: functional; settings: ECa-109
[29] = system: ECa-109 cell line; assay: Induction of apoptosis in human EC109 cells assessed as damaged cells at 10 uM after 12 hrs by annexin V-FITC/propidium iodide staining-based flow cytometric analysis (reference value: 0.4%); format: functional
[30] = system: ECa-109 cell line; assay: Induction of apoptosis in human EC109 cells assessed as activation of caspase-3/9 at 5 to 10 uM after 24 hrs by Western blot analysis; format: functional, cell-based
[31] = system: ECa-109 cell line; assay: Induction of apoptosis in human EC109 cells assessed as late apoptotic cells at 40 uM after 24 hrs by annexin V-FITC/propidium iodide staining-based flow cytometric analysis (reference value: 2.5%); format: functional
[32] = system: ECa-109 cell line; assay: Induction of apoptosis in human EC109 cells assessed as late apoptotic cells at 5 uM after 12 hrs by annexin V-FITC/propidium iodide staining-based flow cytometric analysis (reference value: 1.4%); format: functional
[33] = system: ECa-109 cell line; assay: Induction of apoptosis in human EC109 cells assessed as damaged cells at 2.5 uM after 12 hrs by annexin V-FITC/propidium iodide staining-based flow cytometric analysis (reference value: 0.4%); format: functional
[34] = system: ECa-109 cell line; assay: Induction of apoptosis in human EC109 cells assessed as late apoptotic cells at 40 uM after 12 hrs by annexin V-FITC/propidium iodide staining-based flow cytometric analysis (reference value: 1.4%); format: functional
[35] = system: ECa-109 cell line; assay: Induction of apoptosis in human EC109 cells assessed as early apoptotic cells at 10 uM after 24 hrs by annexin V-FITC/propidium iodide staining-based flow cytometric analysis (reference value: 3.8%); format: functional
[36] = system: ECa-109 cell line; assay: Induction of apoptosis in human EC109 cells assessed as early apoptotic cells at 5 uM after 12 hrs by annexin V-FITC/propidium iodide staining-based flow cytometric analysis (reference value: 6.1%); format: functional

SMILES: C[C@]12CC[C@H](O)CC1=CC[C@@H]1[C@@H]2CC[C@]2(C)c3nc4ncnn4c(-c4cccc(-c5c6c(nc7ncnn57)[C@@]5(C)CC[C@H]7[C@@H](CC=C8C[C@@H](O)CC[C@@]87C)[C@@H]5C6)c4)c3C[C@@H]12
- Activity [1]: 14.6%
- Activity [2]: 12%
- Activity [3]: 43.5%
- Activity [4]: 2%
- Activity [5]: Active
- Activity [6]: 0.4%
- Activity [7]: 29.5%
- Activity [8]: 12.2%
- Activity [9]: 25.4%
- Activity [10]: 48.2%
- Activity [11]: 14.8%
- Activity [12]: 12.8%
- Activity [13]: 40%
- IC50 [14]: 1.19 µM
- Activity [15]: Active
- selectivity ratio [16]: 49
- Activity [17]: tde
- IC50 [18]: 0.13 µM
- Activity [19]: 13.1%
- IC50 [20]: 83 µM
- Activity [21]: 20.8%
- Activity [22]: 7.9%
- Activity [23]: 2.9%
- viability at 72 h, 20 µM [24]: 70%
- IC50 [25]: 1.68 µM
- Activity [26]: 59.9%
- Activity [27]: 2.1%
- Activity [28]: 45%
- Activity [29]: 2.7%
- Activity [30]: Active
- Activity [31]: 78.4%
- Activity [32]: 14%
- Activity [33]: 1.7%
- Activity [34]: 65.3%
- Activity [35]: 24%
- Activity [36]: 24.1%
